Results reported in PMC12070228, “Investigations of Enteric-Coated Tablet Propyl Gallate-Induced Nephrotoxicity in Beagles as well as Human and Dog Renal Proximal Tubule Epithelial Cells” (ACS Pharmacology & Translational Science, 2025).
Read-outs that look alike come from different tables or passages of the source.

Columns and labels:
dog RPTECs = assay: GSH-Glo glutathione assay; assay type: cell-based
Protocol: (§1) Frozen RPTECs vials were removed from liquid nitrogen storage and placed in a 37 °C water bath until the contents were completely thawed. The cells were gently resuspended and dispensed into a cell culture flask at a seeding density of ∼7500 cells/cm^2. The flask was placed in a 37 °C, 5% CO2 incubator. Cell cultures were given fresh medium the following morning and then every other day until the cell culture was approximately 90% confluent. When the cell culture was 90% confluent, medium was removed and the cells were rinsed with warmed PBS. Cells were harvested and split into new flasks based on a cell density of 7500 cells/cm^2. Cells were incubated at 37 °C for 3 days, with fresh medium added each day. Cells were harvested and diluted with growth medium to a density of 200,000 cells/mL. 100 μL of cell suspension per well (20,000 cells/well) was added to a clear-bottom 96-well microplate for luminescence assays. The plated cells were incubated in the 37 °C incubator for 3 days.
(§2) Each test compound (PG, GA, 4OMPG and 4OMGA) was initially reconstituted using DMSO at a concentration of 250 mg/mL. Serial dilutions of each compound were performed to reach concentrations of 4000 μM, 2000 μM, 1000 μM, 500 μM, 250 μM, 125 μM, 62.5 μM, 31.3 μM using warmed fresh supplemented medium with 0.4% (v/v) DMSO for all concentration levels. 100 μL of media containing the compound solution was added to the cells. Final concentrations of the compounds were 2000 μM, 1000 μM, 500 μM, 250 μM, 125 μM, 62.5 μM, 31.3 μM, 15.7 μM. AZ13599185 (tubulysin, 100 or 500 ng/mL) or cisplatin (30 μg/mL) and buthionine sulfoximine (BSO, 200 μM) were used as positive controls for CTG and GSH assays, respectively. 0.2% (v/v) DMSO in medium was used as the control for both assays, corrsponding to the final cocnetration of DMSO in the well. Three replicates for each compound at each concentration were prepared. Six replicates of positive or negative controls were prepared. Cells were incubated at 37 °C for approximately 48 h.
(§3) Cell media were removed and cells were washed twice with 200 μL of PBS buffer per well. CTG and GSH assay reagents were added to the wells and the assays were performed following the protocols of the Promega assay kits. Briefly, to perform the CTG assay, 100 μL of CTG solution was added into each well. The plate was gently shaken and incubated in the dark for 30 min and luminescence was measured using a PerkinElmer VICTOR X3 plate reader. To perform the GSH assay, luciferin-NT substrate and glutathione S-transferase were mixed into the GSH-GLo solution. 100 μL of the mixed solution was added into each well. The plate was gently shaken and incubated in the dark for at least 30 min. 100 μL of Luciferin Detection Reagent was added per well. The plate was gently shaken and incubated in the dark for at least 15 min. Luminescence was measured using a PerkinElmer VICTOR X3 plate reader.
(§4) For cell-based assays, data was normalized to the negative control. Cell viability and GSH level were expressed as Cell viability or GSH level=Luminescence(each well)/Luminescence(average of DMSO negative control)

human RPTECs = assay: GSH-Glo glutathione assay; assay type: cell-based
Protocol: as §1, §2, §3, §4

[1] = no reference given; cited from earlier work
[2] = PG toxicokinetics in dog plasma (LC-MS/MS), studies 001-005; assay type: in vivo; details: beagle, po
Protocol: Samples were vortexed and centrifuged before injection.
(§5) The total run time was 5.5 min.
(§6) The targeted quantitation of PG and phase-I/II metabolites was conducted using peak area ratio of analytes and internal standards in MultiQuant software (SCIEX).
In the follow-up 4-week study (study 003), dogs received EC tablets consisting of the clinical formulation excipients minus PG, clinical formulation excipients minus NaCDC, or PG alone in a gelatin capsule once daily for 26 days. […] Samples for PG toxicokinetics were collected on days 1 and 22 of the dosing-phase at predose (Day 22 only) and 0.5, 1, 2, 4, 6, 8, 12, and 24 h postdose. […] Plasma samples for the measurement of lipopolysaccharide (LPS) were taken twice in the pretest period, predose and 2 h after dosing on Days 15 and 22, and prior to necropsy. LPS concentrations were measured using a qualified sandwich ELISA method (LSBiosciences) with a detection range of 7.82 to 500 pg/mL.
Table S2. Correlation of PG exposure with nephrotoxicity.
AUC0-24 = area under the concentration versus time curve from time 0 to 24 hours; clin = clinical; F = female; M = male; NR = no result due to insufficient data. […]
a Clinical formulation excipients included sodium chenodeoxycholate (Na CDC), propyl gallate (PG), tris(hydroxymethyl)aminomethane (Tris)(except for Study 005), mannitol, crospovidone, aerosil, sodium stearyl fumarate, eudragit, and plasarcryl. b Study 001: Initial 4-week investigational new drug (IND)-enabling good laboratory practice (GLP) study c Study 002: Investigative 4-week study with different excipient combinations d Study 003: Follow-up investigative 4-week study with non-enteric coated capsule e Study 004: 3-month GLP study f Study 005: 9-month GLP study g Day 7 AUC value is presented; AUC could not be calculated for Day 28 samples due to insufficient data. h Minimal nephropathy observed in 2 recovery (4 weeks) group females, but not in main group animals.

[3] = PG pharmacokinetics in healthy volunteers, clinical study NCT03362593 (validated LC-MS/MS); assay type: in vivo; details: human, plasma, oral EC MEDI7219 tablets, PG 200, 400 or 800 mg
Protocol: as §5, §6
Healthy volunteers participating in the clinical study NCT03362593 received single or multiple ascending doses of MEDI7219 tablets. Healthy volunteers received EC MEDI7219 tablets containing 200, 400, or 800 mg PG per tablet. The clinical plasma samples were analyzed using the validated method described above. […] After oral administration of tablets containing PG, the T max of PG was reached around 3–4 h postdose.

[4] = ~48 h exposure, normalized to DMSO control

SMILES: CCCOC(=O)c1cc(O)c(O)c(O)c1 [PG, propyl gallate]
- GSH levels at high concentrations (dog RPTECs; ~48 h, high concentrations): reduction of GSH levels
- Glutathione (GSH) levels (dog RPTECs; [4]): not in dog cells
- GSH levels at high concentrations (human RPTECs; ~48 h, high concentrations): reduction of GSH levels
- Glutathione (GSH) levels (human RPTECs; [4]): induced
- Log P [1]: 2.13
- AUC(0-t) ([2]; 12.5 mg/kg/day, PG 12.5, NaCDC 10, MEDI7219 0.75 mg/kg/day, clin excipients, Study 005 Day 112, read-out: Propyl Gallate Exposure (AUC0-24)): 72 ng·h/mL
- AUC(0-t) ([2]; 12.5 mg/kg/day, PG 12.5, NaCDC 10, MEDI7219 0.75 mg/kg/day, clin excipients, Study 005 Day 196, read-out: Propyl Gallate Exposure (AUC0-24)): 88 ng·h/mL
- AUC(0-t) ([2]; 12.5 mg/kg/day, PG 12.5, NaCDC 10, MEDI7219 0.75 mg/kg/day, clin excipients, Study 005 Day 266, read-out: Propyl Gallate Exposure (AUC0-24)): 90 ng·h/mL
- AUC(0-t) ([2]; 14 mg/kg/day, PG 14, NaCDC 7, MEDI7219 0.4 mg/kg/day, clin excipients, Study 004 Day 78, read-out: Propyl Gallate Exposure (AUC0-24)): 101 ng·h/mL
- AUC(0-t) ([2]; 200 mg/kg/day, PG 200, NaCDC 0, MEDI7219 0 mg/kg/day, clin excipients minus NaCDC and Tris, Study 002 Day 14, read-out: Propyl Gallate Exposure (AUC0-24)): 1890 ng·h/mL
- AUC(0-t) ([2]; 200 mg/kg/day, PG 200, NaCDC 0, MEDI7219 0 mg/kg/day, clin excipients minus NaCDC and Tris, Study 002 Day 21, read-out: Propyl Gallate Exposure (AUC0-24)): 4840 ng·h/mL
- AUC(0-t) ([2]; 200 mg/kg/day, PG 200, NaCDC 0, MEDI7219 0 mg/kg/day, clin excipients minus NaCDC, Study 002 Day 14, read-out: Propyl Gallate Exposure (AUC0-24)): 2580 ng·h/mL
- AUC(0-t) ([2]; 200 mg/kg/day, PG 200, NaCDC 0, MEDI7219 0 mg/kg/day, clin excipients minus NaCDC, Study 002 Day 21, read-out: Propyl Gallate Exposure (AUC0-24)): 1850 ng·h/mL
- AUC(0-t) ([2]; 200 mg/kg/day, PG 200, NaCDC 0, MEDI7219 0 mg/kg/day, clin excipients minus NaCDC, Study 003 Day 22, read-out: Propyl Gallate Exposure (AUC0-24)): 6290 ng·h/mL
- AUC(0-t) ([2]; 200 mg/kg/day, PG 200, NaCDC 0, MEDI7219 0 mg/kg/day, gelatin capsule (PG only), Study 003 Day 22, read-out: Propyl Gallate Exposure (AUC0-24)): 1980 ng·h/mL
- AUC(0-t) ([2]; 200 mg/kg/day, PG 200, NaCDC 100, MEDI7219 0 mg/kg/day, clin excipients minus Tris, Study 002 Day 14, read-out: Propyl Gallate Exposure (AUC0-24)): 2760 ng·h/mL
- AUC(0-t) ([2]; 200 mg/kg/day, PG 200, NaCDC 100, MEDI7219 0 mg/kg/day, clin excipients minus Tris, Study 002 Day 21, read-out: Propyl Gallate Exposure (AUC0-24)): 1800 ng·h/mL
- AUC(0-t) ([2]; 200 mg/kg/day, PG 200, NaCDC 100, MEDI7219 0 mg/kg/day, clin excipients, Study 002 Day 14, read-out: Propyl Gallate Exposure (AUC0-24)): 3250 ng·h/mL
- AUC(0-t) ([2]; 200 mg/kg/day, PG 200, NaCDC 100, MEDI7219 2 mg/kg/day, clin excipients, Study 001 Day 28, read-out: Propyl Gallate Exposure (AUC0-24)): 1210 ng·h/mL
- AUC(0-t) ([2]; PG 25, NaCDC 20, MEDI7219 0.25 mg/kg/day, clin excipients, Study 005 Day 112, read-out: Propyl Gallate Exposure (AUC0-24)): 135 ng·h/mL
- AUC(0-t) ([2]; PG 25, NaCDC 20, MEDI7219 0.25 mg/kg/day, clin excipients, Study 005 Day 196, read-out: Propyl Gallate Exposure (AUC0-24)): 232 ng·h/mL
- AUC(0-t) ([2]; PG 36, NaCDC 18, MEDI7219 1.1 mg/kg/day, clin excipients, Study 004 Day 78, read-out: Propyl Gallate Exposure (AUC0-24)): 282 ng·h/mL
- AUC(0-t) ([2]; PG 44, NaCDC 22, MEDI7219 0 mg/kg/day, clin excipients, Study 005 Day 196, read-out: Propyl Gallate Exposure (AUC0-24)): 864 ng·h/mL
- AUC(0-t) ([2]; PG 44, NaCDC 35, MEDI7219 2.6 mg/kg/day, clin excipients, Study 005 Day 196, read-out: Propyl Gallate Exposure (AUC0-24)): 1870 ng·h/mL
- AUC(0-t) ([2]; PG 60, NaCDC 48, MEDI7219 0 mg/kg/day, clin excipients, Study 005 Day 112, read-out: Propyl Gallate Exposure (AUC0-24)): 3610 ng·h/mL
- AUC(0-t) ([2]; PG 60, NaCDC 48, MEDI7219 3.6 mg/kg/day, clin excipients, Study 005 Day 112, read-out: Propyl Gallate Exposure (AUC0-24)): 829 ng·h/mL
- AUC(0-t) ([2]; PG 76, NaCDC 38, MEDI7219 0.75 mg/kg/day, clin excipients, Study 001 Day 28, read-out: Propyl Gallate Exposure (AUC0-24)): 618 ng·h/mL
- AUC(0-t) ([2]; PG 100, NaCDC 50, MEDI7219 0 mg/kg/day, clin excipients, Study 004 Day 78, read-out: Propyl Gallate Exposure (AUC0-24)): 1830 ng·h/mL
- AUC(0-t) ([2]; PG 100, NaCDC 50, MEDI7219 3 mg/kg/day, clin excipients, Study 004 Day 78, read-out: Propyl Gallate Exposure (AUC0-24)): 767 ng·h/mL
- AUC(0-t) ([2]; PG 200, NaCDC 100, MEDI7219 0 mg/kg/day, clin excipients, Study 001, Day 28 column but Day 7 AUC value is presented (footnote g), read-out: Propyl Gallate Exposure (AUC0-24)): 2560 ng·h/mL
- AUC(0-t) ([2]; female, 25 mg/kg/day, female (F), PG 25, NaCDC 20, MEDI7219 0.25 mg/kg/day, clin excipients, Study 005 Day 266, read-out: Propyl Gallate Exposure (AUC0-24)): 986 ng·h/mL
- AUC(0-t) ([2]; male, 25 mg/kg/day, male (M), PG 25, NaCDC 20, MEDI7219 0.25 mg/kg/day, clin excipients, Study 005 Day 266, read-out: Propyl Gallate Exposure (AUC0-24)): 158 ng·h/mL
- Tmax [3]: 3 to 4 h
